The record followed here is publication PMC7939381, “MMP activation–associated aminopeptidase N reveals a bivalent 14-3-3 binding motif” (The Journal of Biological Chemistry, 2021).

The target of assay [1] is T1, 14-3-3η (Homo sapiens, UniProt Q04917).
T1 construct: N-terminally His6-tagged 14-3-3 full-length proteins were expressed with heterologous bacterial expression; made in house
T1 sequence (Q04917 1-246): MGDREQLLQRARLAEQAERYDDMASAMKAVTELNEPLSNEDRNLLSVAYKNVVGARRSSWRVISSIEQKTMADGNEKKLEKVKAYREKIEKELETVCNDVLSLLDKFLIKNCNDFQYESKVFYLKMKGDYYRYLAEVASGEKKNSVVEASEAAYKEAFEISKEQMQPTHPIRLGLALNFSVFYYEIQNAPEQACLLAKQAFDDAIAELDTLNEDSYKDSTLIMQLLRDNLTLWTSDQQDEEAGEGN
Put plainly: direct binding FP assay, 14-3-3η. As to conditions: FP assay, FITC-labeled peptide; Fig. 2C and Fig. S1. On the procedure:
(§1) For the FP assay, the 14-3-3 proteins were diluted to a protein-specific start concentration in FP buffer (10 mM HEPES, pH 7.4, 150 mM NaCl, 2 mM DTT, 0.01% Tween 20). DMSO stocks of peptides were diluted in FP buffer to a concentration of 30 nM. For the assay, 10 μl of FP buffer were pipetted in 20 wells of a 384-well Corning black round bottom plate. A dilution series with 10 μl of protein solution was performed, and 5 μl of peptide solution was added to each well for a final volume of 15 μl. The plate was incubated for 60 min at room temperature. Measurement was performed at 25 °C in a Tecan Spark20M plate reader (λex = 470 nm, λem = 525 nm). Data analysis was performed with GraphPad Prism (version 5.03), and KD values were determined via a nonlinear regression fit of dose-response curves with variable slope (four parameters).

Assay [2] has as its system His6-14-3-3η. Put plainly: pulldown of His6-14-3-3η from E. coli cell lysate with biotinylated peptides. The assay is classed as binding, human. As to conditions: biotinylated peptide on streptavidin beads; NTA-Atto488 stained SDS-PAGE, Fig. 2E. On the procedure: (§2) 14-3-3–overexpressing E. coli cell lysate was prepared by lysing E. coli cells via sonication in pulldown buffer and removing cell debris by ultracentrifugation (53,350 rcf, 45 min, 4 °C). 24 nmol of Streptavidin Sepharose High Performance beads (GE Healthcare) were equilibrated with pulldown buffer (50 mM HEPES, pH 7.4, 250 mM NaCl, 20 mM MgCl2) and incubated with 24 nmol of biotin-1, biotin-6, or no peptide for 45 min on ice. Afterward, the beads were washed three times with pulldown buffer. Subsequently, the beads were incubated for 120 min in the prepared cell lysate. After incubation, beads were washed three times with pulldown buffer and split in half either for direct SDS-PAGE or for competition analysis, respectively. For competition, beads incubated with biotin-1 were incubated with 96 nmol of acetylated peptide 1 for 60 min and washed three times with pulldown buffer. For SDS-PAGE, 6 nmol of beads were added per lane on a Tris-Tricine ([52]) gel and run for 120 min at 150 V. After electrophoresis, gel was fixated for 90 min in a solution of 50% water, 40% EtOH, and 10% acetic acid and consequently washed two times for 30 min in water. Staining of the His6-tagged proteins in the gel was performed in a 1:1000 dilution of a 1 μg/μl solution of NTA-Atto488 (Sigma–Aldrich) for 60 min. Access stain was removed by two washing steps, each 60 min, in water. […]

The target in assay [3] is T2, 14-3-3β/α (Homo sapiens, UniProt P31946).
T2 construct: N-terminally His6-tagged 14-3-3 full-length proteins were expressed with heterologous bacterial expression; made in house
T2 sequence (P31946 1-246): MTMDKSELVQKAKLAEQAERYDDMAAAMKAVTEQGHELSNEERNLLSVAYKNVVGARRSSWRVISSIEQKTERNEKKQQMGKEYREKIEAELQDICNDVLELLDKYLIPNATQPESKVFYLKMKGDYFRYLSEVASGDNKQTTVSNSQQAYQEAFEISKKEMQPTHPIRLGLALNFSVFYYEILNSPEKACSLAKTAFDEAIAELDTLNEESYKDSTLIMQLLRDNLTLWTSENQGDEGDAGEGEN
In words: direct binding FP assay, 14-3-3β/α. As to conditions: FITC-labeled peptide, Fig. 2C and Fig. S1. As for the experimental part:
as §1

Assay [4] concerns the target T1, 14-3-3η. Put plainly: isothermal titration calorimetry (ITC) with 14-3-3η. The assay is classed as binding. As to conditions: T = 298 K; peptide per 14-3-3 protomer; mean ± S.D., n = 3. On the procedure:
The ITC experiments were performed on an automated MicroCal iTC200 (Malvern Panalytical). To prepare 14-3-3 proteins for ITC measurements, a buffer exchange to ITC buffer (50 mM HEPES, pH 7.4, 250 mM NaCl, 20 mM MgCl2) was performed on a Superdex 75 10/300 GL column (ÄKTA Pure FPLC system, GE Healthcare). For peptides 1, 7, and 17, a 500 μM solution of protein was titrated to a 50 μM solution of peptide in 18 steps (2-μl volume in 4 s, 180-s spacing) at 25 °C. For peptide 11, a 250 μM solution of protein was titrated to a 12.5 μM solution of peptide with the settings mentioned before. The reference power was set to […], and the stirring speed was set to 750 rpm. Analysis was performed using MicroCal ITC-ORIGIN analysis software.
For orientation: In ITC the heat of successive injections is recorded.

For assay [5], the system named is His6-14-3-3β/α. Put plainly: pulldown of His6-14-3-3β/α from E. coli cell lysate with biotinylated peptides. The assay is classed as binding, human. The following applies: biotinylated peptide on streptavidin beads; NTA-Atto488 stained SDS-PAGE, Fig. S2B. On the procedure: as §2

Where a SMILES comes first, the peptide text is derived from it. [ ]: non-standard residue; d: D form. pS = N[C@@H](COP(=O)(O)O)C(=O)O

In the case of `CC(=O)N[C@@H](CC(N)=O)C(=O)N[C@@H](CCCCN)C(=O)N[C@@H](CC(N)=O)C(=O)N[C@@H](C)C(=O)N[C@@H](CC(N)=O)C(=O)N[C@@H](COP(=O)(O)O)C(=O)N[C@@H](CO)C(=O)N1CCC[C@H]1C(=O)N[C@H](C(=O)O)C(C)C` [compound 1] (Ac-NKNAN[pS]SPV-OH), the “relative affinity of 14-3-3η compared with 14-3-3σ (relative affinity = 1)” value in assay [1] was found to be 18.6 fold. In addition, the “pulldown of His6-14-3-3η (in words)” value in assay [2] is listed as “binds specifically”. Moreover, in assay [3], the “relative affinity of 14-3-3β/α compared with 14-3-3σ (relative affinity = 1)” value is 5.7 fold. The “binding stoichiometry N (ITC, 14-3-3η)” value in assay [4] turned out to be 1.05 ± 0.02. In assay [5], the “pulldown of His6-14-3-3β/α (in words)” value is “binds specifically”.
